Measured values published in US20050090563A1, “Method and compositions for inhibiting the scent tracking ability of mosquitoes and biting midges” (Bedoukian Research, Inc., priority 2003, published 2005).

Test system: Aedes aegypti mosquitoes
Assay: Field test of mosquito landings on human subjects near candles containing the test substance
Type: in vivo
Conditions: for Four Day Totals of Mosquito Landings On Subjects: field test, Connecticut, August 2003, candles at four corners of 7 ft x 7 ft squares, 18 inches above ground, four human subjects, landings counted on arms, legs and torso, control without substance 152
Description: In a test of the inhibiting ability of the (S)-(+)-linalool chiral isomer compound of this invention, the following field test was conducted. The study was conducted in August 2003 on a site in Connecticut. Candles containing the test compound or no compound were placed 18 inches above the ground at the four corners of 7 ft×7 ft squares, with the squares being placed 50 ft apart. Four subjects (persons) were employed in the tests. On a given day, the subjects were rotated through all four positions of a square. Each day, treatments rotated to the next position, so that each treatment was tested at each site. The landing of mosquitoes on the subject were counted. Landing counts were taken from the arms, legs and torso of a test subject.

SMILES	Four Day Totals of Mosquito Landings On Subjects	Mosquito landings relative to linalool (same candle field test, four day totals) [%]
C=CC(C)(O)CCC=C(C)C (stereo not drawn) [Linalool: 85% (+), 15% (−), Linalool]	42	73.5
C=CC(C)(O)CCC=C(C)C (stereo not drawn) [Linalool: 35% (+), 65% (−), Linalool, reference compound]	82	–
